Reference: patent publication US20140187423A1, “Fungicidal substituted 1--1H-[1,2,4]triazole compounds” (BASF SE, priority 2011, published 2014)

Key:
[1] = test system: Phakopsora pachyrhizi; experiment: Green house G1: protective control of soy bean rust on soy beans caused by Phakopsora pachyrhizi (Phakpa P2); format: in vivo; conditions: soy bean seedlings sprayed 2 days before inoculation, % diseased leaf area, untreated control 70
Experimental: The spray solutions were prepared in several steps:
The stock solution were prepared: a mixture of acetone and/or dimethylsulfoxide and the wetting agent/emulsifier Wettol, which is based on ethoxylated alkylphenoles, in a relation (volume) solvent-emulsifier of 99 to 1 was added to 25 mg of the compound to give a total of 5 ml. Water was then added to total volume of 100 ml. This stock solution was diluted with the described solvent-emulsifier-water mixture to the given concentration.
G1. Protective control of soy bean rust on soy beans caused by Phakopsora pachyrhizi (Phakpa P2)
Leaves of pot-grown soy bean seedlings were sprayed to run-off with an aqueous suspension, containing the concentration of active ingredient or their mixture as described below. The plants were allowed to air-dry. The trial plants were cultivated for 2 days in a greenhouse chamber at 23-27° C. and a relative humidity between 60 and 80%. Then the plants were inoculated with spores of Phakopsora pachyrhizi. To ensure the success the artificial inoculation, the plants were transferred to a humid chamber with a relative humidity of about 95% and 20 to 24° C. for 24 h. The trial plants were cultivated for fourteen days in a greenhouse chamber at 23-27° C. and a relative humidity between 60 and 80%. The extent of fungal attack on the leaves was visually assessed as % diseased leaf area.

[2] = test system: Septoria tritici; experiment: Green house G2: preventative control of leaf blotch on wheat caused by Septoria tritici (Septtr P7); format: in vivo; conditions: wheat seedlings sprayed 7 days before inoculation, % diseased leaf area, untreated control 70
Experimental: The spray solutions were prepared in several steps: The stock solution were prepared: a mixture of acetone and/or dimethylsulfoxide and the wetting agent/emulsifier Wettol, which is based on ethoxylated alkylphenoles, in a relation (volume) solvent-emulsifier of 99 to 1 was added to 25 mg of the compound to give a total of 5 ml. Water was then added to total volume of 100 ml. This stock solution was diluted with the described solvent-emulsifier-water mixture to the given concentration. G2. Preventative control of leaf blotch on wheat caused by Septoria tritici (Septtr P7) Leaves of pot-grown wheat seedling were sprayed to run-off with an aqueous suspension of the active compound or their mixture, prepared as described. The plants were allowed to air-dry. Seven days later the plants were inoculated with an aqueous spore suspension of Septoria tritici. Then the trial plants were immediately transferred to a humid chamber at 18-22° C. and a relative humidity close to 100%. After 4 days the plants were transferred to a chamber with 18-22° C. and a relative humidity close to 70%. After 4 weeks the extent of fungal attack on the leaves was visually assessed as % diseased leaf area.

CCOC(Cn1cncn1)c1ccc(Oc2ccc(Cl)cc2)cc1Cl (centres unmarked) [prior art compound]
Disease (%) at 16 ppm Phakpa P2 [1]: 70%
Disease (%) at 16 ppm Septtr P7 [2]: 50%
